Measured values published in patent US12257247B2 (Monte Rosa Therapeutics AG, priority 2023, dated 2025).
Like-named read-outs stand apart in the source and are kept apart here.

Molecular target: T1, VAV1 (Homo sapiens, UniProt P15498+Q96SW2)
T1 construct: A heterozygous VAV1 C-terminal HiBiT knock-in pool was generated at Monte Rosa Therapeutics from a clonal Jurkat cell; endogenous in cells; host or cells: Jurkat clone stably expressing LgBiT, homozygous GSPT1-G575N; heterozygous VAV1-HiBiT knock-in pool
Assay: VAV1 degradation activity, VAV1-HiBiT knock-in Jurkat luminescence assay (Example A, Table 1)
Assay type: cell-based
Details: VAV1-HiBiT knock-in Jurkat cells, luminescence read at 6 and 24 hours; for Dmax: Jurkat
Method: Cells were plated at 10,000 cells per well using Multiflo (BioTek) or Multi Drop Combi (Thermo Fisher) in 384-well white solid bottom plates (Corning, 3570BC) in 25 ul volume in RPMI 1640 media (Thermo Fischer, 22400105) containing 10% FBS (Corning, 35-075-CV), 1% Penicillin/Streptomycin (ThermoFisher Scientific, 15140-122), and 1% Endurazine (Nano-Glo Endurazine Live Cell Substrate (Promega, N2571)). Cells were incubated for ˜16 hours at 37° C., 5% CO2. 25 nL of a compound at 10 μM were dosed into the plate using an Echo® 650 liquid handler (Labcyte). Cells were incubated at 37° C., 5% CO2 and signal was read at 6 and 24 hours after compound addition on a Pherastar FSX using “LUM plus” optic module.
Analysis was performed in Scinamic (Scinamic, Cambridge, MA). Luminescence response (R) was calculated by the formula: response=100*(S−N)/(P−N) where S is the signal of the well, N and P the mean negative and positive control values respectively of the same plate. The luminescence response was then fitted in Scinamic using a 3-parameter agonist logistic fit (hillslope=1, EC50>0, top/bottom unconstrained).

[1] = read-out: VAV1 DC50 (nM), class

Dmax (read-out: VAV1 Dmax %) [%] | Dmax (read-out: VAV1 Dmax %, class) [%] | DC50 (read-out: VAV1 DC50) [nM] | DC50 [1] [nM] | SMILES
61 | 60 to 90 | 1560 | > 1000 | O=C1CCC(c2cccc(-c3ccc(N4Cc5ccccc5C4=O)cc3)c2Cl)C(=O)N1 (stereo not drawn) [Compound 456, 3-(2-chloro-4′-(1-oxoisoindolin-2-yl)-[1,1′-biphenyl]-3-yl)piperidine-2,6-dione]
81.5 | 60 to 90 | 77 | ≤ 100 | O=C1CCC(c2cccc(-c3ccc(Cc4ncccn4)nc3)c2Cl)C(=O)N1 (stereo not drawn) [Compound 400, 3-(2-chloro-3-(6-(pyrimidin-2-ylmethyl)pyridin-3-yl)phenyl)piperidine-2,6-dione]
92.8 | > 90 | 24.1 | ≤ 100 | O=C1CCC(c2cccc(-c3ccc(-n4cccnc4=O)cc3)c2Cl)C(=O)N1 (stereo not drawn) [Compound 471, 3-(2-chloro-4′-(2-oxopyrimidin-1(2H)-yl)-[1,1′-biphenyl]-3-yl)piperidine-2,6-dione]
95.5 | > 90 | 6.17 | ≤ 100 | O=C1CCC(c2cccc(-c3ccc(N4C(=O)CCCC45COC5)cc3)c2Cl)C(=O)N1 (stereo not drawn) [Compound 407, 3-(2-chloro-4′-(6-oxo-2-oxa-5-azaspiro[3.5]nonan-5-yl)-[1,1′-biphenyl]-3-yl)piperidine-2,6-dione]
96.9 | > 90 | 4.98 | ≤ 100 | O=C1CCC(c2cccc(-c3ccc4c(cnn4Cc4ncccn4)c3)c2Cl)C(=O)N1 (stereo not drawn) [Compound 396, 3-(2-chloro-3-(1-(pyrimidin-2-ylmethyl)-1H-indazol-5-yl)phenyl)piperidine-2,6-dione]
96.2 | > 90 | 9.34 | ≤ 100 | Cc1nc(Cc2ccc(-c3cccc(C4CCC(=O)NC4=O)c3Cl)cc2)no1 (stereo not drawn) [Compound 473, 3-(2-chloro-4′-((5-methyl-1,2,4-oxadiazol-3-yl)methyl)-[1,1′-biphenyl]-3-yl)piperidine-2,6-dione]
91.7 | > 90 | 18.7 | ≤ 100 | O=C1CCC(c2cccc(-c3ccc4[nH]ccc4c3)c2Cl)C(=O)N1 (stereo not drawn) [Compound 482, 3-(2-chloro-3-(1H-indol-5-yl)phenyl)piperidine-2,6-dione]
70.8 | 60 to 90 | 330 | 100 to 1000 | CN1CCCN(c2ccc(-c3cccc(C4CCC(=O)NC4=O)c3Cl)cn2)C1=O (stereo not drawn) [Compound 435, 3-(2-chloro-3-(6-(3-methyl-2-oxotetrahydropyrimidin-1(2H)-yl)pyridin-3-yl)phenyl)piperidine-2,6-dione]
86.7 | 60 to 90 | 29.3 | ≤ 100 | O=C1CCC(c2cccc(-c3ccc4c(c3)CC(=O)N4Cc3ncccn3)c2Cl)C(=O)N1 (stereo not drawn) [Compound 393, 3-(2-chloro-3-(2-oxo-1-(pyrimidin-2-ylmethyl)indolin-5-yl)phenyl)piperidine-2,6-dione]
95.7 | > 90 | 7.16 | ≤ 100 | O=C1CCC(c2cccc(-c3ccc(N4C(=O)CCCC4C(F)F)cc3)c2Cl)C(=O)N1 (stereo not drawn) [Compound 463, 3-(2-chloro-4′-(2-(difluoromethyl)-6-oxopiperidin-1-yl)-[1,1′-biphenyl]-3-yl)piperidine-2,6-dione]
97.2 | > 90 | 25.6 | ≤ 100 | O=C1CCC(c2cccc(-c3ccc(Cc4ccco4)cc3)c2Cl)C(=O)N1 (stereo not drawn) [Compound 373, 3-(2-chloro-4′-(furan-2-ylmethyl)-[1,1′-biphenyl]-3-yl)piperidine-2,6-dione]

The remaining lines, values behind:

SMILES | Dmax (read-out: VAV1 Dmax %) [%] | Dmax (read-out: VAV1 Dmax %, class) [%] | DC50 (read-out: VAV1 DC50) [nM] | DC50 [1] [nM]
O=C1CCC(c2cccc(-c3ccc(-n4c(F)cccc4=O)cc3)c2Cl)C(=O)N1 (stereo not drawn) [Compound 242, 3-(2-chloro-4′-(6-fluoro-2-oxopyridin-1(2H)-yl)-[1,1′-biphenyl]-3-yl)piperidine-2,6-dione] | 91.5 | > 90 | 68.4 | ≤ 100
O=C1CCC(c2cc(F)cc(-c3ccc(-n4ccccc4=O)cc3)c2Cl)C(=O)N1 (stereo not drawn) [Compound 361, 3-(2-chloro-5-fluoro-4′-(2-oxopyridin-1(2H)-yl)-[1,1′-biphenyl]-3-yl)piperidine-2,6-dione] | 84.4 | 60 to 90 | 76.4 | ≤ 100
Cn1ccc(COc2ccc(-c3c(C#N)ccc(C4CCC(=O)NC4=O)c3Cl)cc2)n1 (stereo not drawn) [Compound 179] | 32.8 | < 60 | ≥ 10000 | > 1000
CN1CC(=O)N(c2ccc(-c3cccc(C4CCC(=O)NC4=O)c3Cl)cc2)c2cccnc21 (stereo not drawn) [Compound 335] | 97.3 | > 90 | 5.87 | ≤ 100
O=C1CCC(c2cccc(-c3cccc(COC4CCOC4)c3)c2Cl)C(=O)N1 (stereo not drawn) [Compound 190, 3-(2-chloro-3′-(((tetrahydrofuran-3-yl)oxy)methyl)-[1,1′-biphenyl]-3-yl)piperidine-2,6-dione] | 21.5 | < 60 | 3330 | > 1000
O=C1CCC(c2cccc(-c3ccc(-n4c(F)cccc4=O)nc3)c2Cl)C(=O)N1 (stereo not drawn) [Compound 343, 3-(2-chloro-3-(6-fluoro-2-oxo-2H-[1,2′-bipyridin]-5′-yl)phenyl)piperidine-2,6-dione] | 86.3 | 60 to 90 | 161 | 100 to 1000
O=C1CCC(c2cccc(-c3ccc(-n4c(C(F)F)cccc4=O)cc3)c2Cl)C(=O)N1 (stereo not drawn) [Compound 238, 3-(2-chloro-4′-(6-(difluoromethyl)-2-oxopyridin-1(2H)-yl)-[1,1′-biphenyl]-3-yl)piperidine-2,6-dione] | 98.7 | > 90 | 2.24 | ≤ 100
CC1CCC(F)(F)C(=O)N1Cc1ccc(-c2cccc(C3CCC(=O)NC3=O)c2Cl)cc1 (stereo not drawn) [Compound 266] | 93.2 | > 90 | 14.1 | ≤ 100
O=C1CCC(c2cccc(-c3ccc(N4CCC5(COC5)C4=O)cc3)c2Cl)C(=O)N1 (stereo not drawn) [Compound 358, 3-(2-chloro-4′-(5-oxo-2-oxa-6-azaspiro[3.4]octan-6-yl)-[1,1′-biphenyl]-3-yl)piperidine-2,6-dione] | 44.3 | < 60 | ≥ 10000 | > 1000
Nc1ccc(-c2cccc(C3CCC(=O)NC3=O)c2Cl)cc1OC(F)F (stereo not drawn) [Compound 113] | 64.6 | 60 to 90 | 482 | 100 to 1000
CCNc1ccc(-c2cccc(C3CCC(=O)NC3=O)c2Cl)cc1 (stereo not drawn) [Compound 115] | 80.9 | 60 to 90 | 125 | 100 to 1000
O=C1CCC(c2cccc(-c3ccc(-n4ccc(C(F)(F)F)cc4=O)cc3)c2Cl)C(=O)N1 (stereo not drawn) [Compound 236, 3-(2-chloro-4′-(2-oxo-4-(trifluoromethyl)pyridin-1(2H)-yl)-[1,1′-biphenyl]-3-yl)piperidine-2,6-dione] | 93.5 | > 90 | 31.3 | ≤ 100
N#Cc1ccc(-c2cccc(C3CCC(=O)NC3=O)c2Cl)cc1 (stereo not drawn) [Compound 142] | 69.9 | 60 to 90 | 705 | 100 to 1000
